In patent US5298488A, “CM-chitin derivatives and use thereof” (Fuji Photo Film Co., Ltd., priority 1990, dated 1994):
No end group written: not given here. succinylated CM‑Chitin = succinylated CM-chitin

Columns and labels:
[1] = system: fibronectin; assay: Cell adhesion-inhibitory test against fibronectin (competitive assay, number of adhered cells); format: cell-based, human; details: endothelium cells of blood vessel, 37° C., one hour, 0 mg/ml control 160
From the text: (§1) A method for determining the activity of the CM-chitin derivatives of the present invention for inhibiting adhesion of cells to fibronectin or vitronectin will be described below. The competitive assays used herein have widely been employed tin the field of biochemistry and are detailed in, for instance, "Method in Enzymology", 1981, 82, pp. 803-831; and J. P. KOKAI Nos. Hei 1-309682 and Hei 2-174797.
(§2) Commercially available fibroneotin (derived from human; purchased from Seikaqaku Kogyo K. K.) and vitronectin (derived from human; purchased from Funakoshi Co., Ltd.) each was diluted to 1.0 μ1/ml and 2.0 μ1/ml with PBS (NaH2 PO4 0.005 M+NaCl 0.07 M), 0.5 ml of the resulting diluted solution was dispensed into a plastic plate having 24 wells and incubated at 37° C. overnight to perform coating of the plate. Then bovine serum albumin (BSA 1%) was added followed by incubation at 37° C. for one hour for inhibiting the occurrence of nonspecific adsorption, then washing with PBS in the usual manner and sufficient drainage to give an adsorption plate.
A CM-chitin derivative obtained through lyophilization was diluted with Dulbecco's Modified Eagles Medium (hereunder referred to as "DMEM") to give solutions of the CM-chitin derivative having concentrations of 0, 0.25, 0.5, 1.0 and 1.5 mg/ml respectively. Each of the solutions (0.25 ml) was dispensed to the plate prepared above, 0.25 ml of a suspension of endothelium cells of blood vessel (4×10^6 cells/ml) was added to the plate and incubated at 37° C. for one hour to thus cause cohesion of the cells. The plate was washed three times with DMEM medium to remove non-adhesive cells, then the adhered cells were peeled off with a 0.025% EDTA trypsin solution and stained with a 2% Trypan Blue solution to determine the number of the adhered cells.

[2] = system: human plasma rich in platelet; assay: Platelet coagulation-inhibitory activity in vitro, transmittance by aggregometer; format: cell-based; details: 37° C., 3 minutes preincubation; for Platelet Coagulation-Inhibitory Action IC50, ADP Stimulation: ADP stimulation (50 μM ADP solution); for Platelet Coagulation-Inhibitory Action IC50, Collagen Stimulation: collagen stimulation (200 μg/ml collagen solution)
Experimental: The platelet coagulation-inhibitory effect of the CM-chitin derivative of the present invention was assayed, in vitro, using human plasma rich in platelet. The experimental method will be described below.
To fresh human blood, there was added 1/9 volume of a 3.8% sodium citrate solution, the resulting mixture was centrifuged (1000 rpm; for 10 minutes) and the upper layer was separated as a plasma rich in platelet. A lyophilized CM-chitin derivative was dissolved in physiological saline to give a plurality of solutions having various concentrations ranging from 0 to 1.5 mg/ml. Each of the solutions (25 μ1) was added to 200 µl of the plasma, incubated at 37° C. for 3 minutes, then a 50 μM of ADP (adenosine diphosphate) solution or a 200 μg/ml collagen solution was added to determine the extent of coagulation in terms of transmittance determined by an aggregometer.
Rate of Coagulation Inhibition=(1-T/T .)×100%
T . : transmittance observed when a salt of CM-chitin derivative was not added.
T : transmittance observed when a salt of CM-chitin derivative was added.

[3] = system: vitronectin; assay: Cell adhesion-inhibitory test against vitronectin (competitive assay, number of adhered cells); format: cell-based, human; details: endothelium cells of blood vessel, 37° C., one hour, 0 control 249
From the text: as §1, §2
[…] Each of the solutions (0.25 ml) was dispensed to the plate prepared above, 0.25 ml of a suspension of endothelium cells of blood vessel (4×10^6 cells/ml) was added to the plate and incubated at 37° C. for one hour to thus cause cohesion of the cells. The plate was washed three times with DMEM medium to remove non-adhesive cells, then the adhered cells were peeled off with a 0.025% EDTA trypsin solution and stained with a 2% Trypan Blue solution to determine the number of the adhered cells.

[4] = concentration 10 mg/ml (so in the source)
[5] = concentration 50 mg/ml (so in the source)
[6] = concentration 100 mg/ml (so in the source)
[7] = concentration 300 mg/ml (so in the source)

| Substance | Cell Adhesion-Inhibitory effect Against Fibronectin (number of adhered cells) ([1]; concentration 0.5 mg/ml) [cell/well] | Cell Adhesion-Inhibitory effect Against Fibronectin (number of adhered cells) ([1]; concentration 1.0 mg/ml) [cell/well] | Cell Adhesion-Inhibitory effect Against Fibronectin (number of adhered cells) ([1]; concentration 1.5 mg/ml) [cell/well] | Cell Adhesion-Inhibitory effect Against Fibronectin (number of adhered cells) ([1]; concentration .25 mg/ml) [cell/well] | Platelet Coagulation-Inhibitory Action IC50, ADP Stimulation [2] [µg/mL] | Platelet Coagulation-Inhibitory Action IC50, Collagen Stimulation [2] [µg/mL] | Cell Adhesion-Inhibitory effect Against Vitronectin (number of adhered cells) [3, 4] [cell/well] | Cell Adhesion-Inhibitory effect Against Vitronectin (number of adhered cells) [3, 5] [cell/well] | Cell Adhesion-Inhibitory effect Against Vitronectin (number of adhered cells) [3, 6] [cell/well] | Cell Adhesion-Inhibitory effect Against Vitronectin (number of adhered cells) [3, 7] [cell/well] |
| --- | --- | --- | --- | --- | --- | --- | --- | --- | --- | --- |
| Maleyl Derivative of CM-Chitin Arg-Gly-Asp-Ser (RGDS; also: conjugated to maleyl CM-chitin) [CM--chitin derivative-3] | 100 | 77 | 55 | 123 | 21 | 7 | 141 | 87 | 69 | 49 |
| Phthaloyl derivative of CM-Chitin Arg-Gly-Asp-Ser (RGDS; also: conjugated to phthaloyl CM-chitin) [CM--chitin derivative-4] | 121 | 80 | 67 | 141 | 29 | 15 | 145 | 90 | 67 | 45 |
| Succinylated CM-Chitin Arg-Gly-Asp [CM--chitin derivative-9] | 97 | 85 | 65 | 121 | 28 | 9 | 139 | 88 | 77 | 58 |
| Succinylated CM-Chitin Gly-Arg-Gly-Asp-Ser (GRGDS; also: conjugated to succinylated CM-chitin) [CM--chitin derivative-8] | 113 | 80 | 59 | 130 | 24 | 14 | 130 | 95 | 69 | 47 |
| Succinylated CM-Chitin-(Arg-Gly-Asp)2 ({succinylated CM‑Chitin}-RGDRGD) [CM--chitin derivative-10] | 110 | 87 | 73 | 122 | 20 | 13 | 136 | 86 | 71 | 43 |
| Succinylated CM-Chitin-(Arg-Gly-Asp)3 ({succinylated CM‑Chitin}-RGDRGDRGD) [CM--chitin derivative-11] | 125 | 78 | 70 | 143 | 21 | 12 | 147 | 100 | 73 | 45 |
| Succinylated CM-Chitin-(Arg-Gly-Asp)5 ({succinylated CM‑Chitin}-RGDRGDRGDRGDRGD) [CM--chitin derivative-12] | 101 | 89 | 77 | 125 | 30 | 8 | 150 | 101 | 80 | 59 |
